Data reported in US20190313680A1, “MODIFYING OR ENHANCING A FLAVOR OF FOOD AND BEVERAGE PRODUCTS” (Tate & Lyle Ingredients Americas LLC, priority 2016, published 2019).

What was measured:
[1] = tested on: panelists; test: 2-AFC flavor and preference test, cotton candy flavored water (Example 1); type: in vivo; conditions: allulose in an amount below its sweetness threshold in cotton candy flavored beverage
Description: Cotton candy flavor samples in accordance with Table 2 below were prepared by weighing all of the ingredients into a container and blending until fully mixed.
(§1) The N&A Cotton Candy flavor was obtained from Givaudan (product code YX-953-327-3). […] DOLCIA PRIMA® was obtained from Tate & Lyle. The DOLCIA PRIMA® Allulose Syrup comprises allulose in an amount of 71% by weight on a dry solids basis. Accordingly, in the Test Sample, allulose was present at an amount of approximately 1.5% by weight relative to the total weight of the solution. The deionized water was produced by reverse osmosis.
The samples in Table 2 were subjected to 2-AFC testing. As already described herein, an AFC test is an alternative forced choice test. It asks a panelist to identify the sample that is most or least intense in a specified attribute among a given number of samples. A 2-AFC test chooses among 2 samples, a 3-AFC test chooses among 3 samples, etc. The attributes that are specified are generally attributes which panelists are likely to be able to recognize and identify a difference. A 2-AFC for sweetness would present panelists with two samples and ask them of the two which is sweeter. These differ from triangle tests or other types of tests in that an attribute is specified for the panelist to focus on. […]

[2] = tested on: panellists; test: Determination of the sweet-taste threshold of allulose: two-alternative forced choice test (2-AFC) against 1.5% by weight sucrose solution; type: in vivo
Description: Described herein is a method for determining the sweetness threshold of allulose. The method is a two-alternative forced choice test against threshold levels of sweetness (ASTM Designation E2164-08: Standard Test Method for Directional Difference Test). This test is used to determine the amount of allulose at which its sweetness is less than that of the recognition threshold concentration of sucrose. The recognition threshold concentration of sucrose is 1.5% by weight in accordance with FEMA (Flavor Extracts Manufacturing Association) GRAS™ guidance.
The sweet-taste threshold of allulose was determined in accordance with FEMA (Flavor Extracts Manufacturing Association) guidance. The standard process described in this guidance requires use of a two-alternative forced choice test (2-AFC testing) against threshold levels of sweetness. FEMA guidance states that the standard for this determination is a 1.5% by weight sucrose aqueous solution (i.e. the sucrose is present in an amount of 1.5% by weight relative to the total weight of the solution). AFC tests are to be performed up to the concentration where the proposed substance exceeds the sweetness levels of sucrose at threshold levels. FEMA guidance further recommends that 30 observations be made to assess the difference in sweetness and that the differences must be found to be statistically significant to assess the effect.
The number of panellists used across replicates always exceeded the minimum of 30 observations as recommended by the FEMA sensory testing guidance. As replicates were performed, beta-binomial statistics were required to be consistent with published requirements (BI, Jian. 2006. Sensory Discrimination tests and Measurements. Chapter. 6, p. 106-129, 1st ed. Blackwell Publishing, Ames, Iowa). In such tests, when the beta-binomial term A exceeds zero, the beta-binomial is required. However, if A is zero or negative, then the panel is not over-dispersed and traditional binomial statistics can be used.
Samples were prepared on the morning of testing. Reference solutions were made as a point of comparison for all tests. The reference solutions were simple solutions of 1.5% by weight sucrose (commercial Domino brand sugar) in water. Test solutions were made from Tate & Lyle Dolcia Prima® allulose syrup standardized such that the amount of allulose in the test solutions was 1.925%, 2.310%, 2.695%, 2.8875%, or 3.080% by weight relative to the total weight of the solution.
Replicated pairs of samples at a single test concentration were chosen from those above and served on a given day. Panellists were presented products in coded 2-oz soufflé cups containing approximately 1.5 oz of liquid, and asked which sample was sweeter. Products were served at room temperature. The serving order was randomized based on a complete block design, such that the order of samples was randomized among panellists and between replicates.

[3] = tested on: panellists; test: 2-AFC flavor and preference test, salted caramel flavored water (Example 2); type: in vivo; conditions: allulose in an amount below its sweetness threshold in salted caramel flavored beverage
Description: Salted caramel flavor samples in accordance with Table 4 below were prepared by weighing all of the ingredients into a container and blending until fully mixed.
as §1, with “Salted Caramel” for “Cotton Candy”, “Flavor & Fragrance Specialities” for “Givaudan”, “YX-226E 032).” for “YX-953-327-3).”
The samples in Table 3 were subjected to 2-AFC testing.
Samples were prepared on the morning of testing. […] Standard ambient fluorescent lighting was used in sensory isolation booths, as is typical in sensory facilities. Products were served blinded and randomized in 2-oz soufflé cups identified with randomized three digit product codes.
The response questionnaires were run using Compusense Cloud. Replicates were not performed for this study. Therefore, simple binomial statistics were applied.

[4] = in accordance with FEMA GRAS guidance; cited from earlier work

SMILES | Effect on cotton candy flavor (in words) [1] | Effect on preference for the beverage (in words) [1] | Sweetness compared with sucrose solution (in words) ([2]; 2.8875% by weight of allulose vs 1.5% by weight sucrose) | Sweetness relative to sweetness threshold (in words) ([2]; 3.0800% allulose solids) | Count: number of panellists who selected the sucrose solution as sweeter ([2]; allulose 1.9250 weight % in water vs 1.5% by weight sucrose, 50 possible) | Count: number of panellists who selected the sucrose solution as sweeter ([2]; allulose 2.3100 weight % in water vs 1.5% by weight sucrose, 58 possible) | Count: number of panellists who selected the sucrose solution as sweeter ([2]; allulose 2.6950 weight % in water vs 1.5% by weight sucrose, 60 possible) | Count: number of panellists who selected the allulose solution as sweeter ([2]; allulose 2.8875 weight % in water vs 1.5% by weight sucrose, 44 possible) | Count: number of panellists who selected the allulose solution as sweeter ([2]; allulose 3.0800 weight % in water vs 1.5% by weight sucrose, 60 possible) | Amount of allulose in solution considered below its sweetness threshold ([2]; relative to total weight of the solution, vs 1.5% by weight sucrose) [% by weight] | Effect on preference for the beverage (in words) [3] | Effect on salted caramel flavor (in words) [3] | Recognition threshold concentration [4] [% by weight]
O=C(CO)C(O)C(O)C(O)CO (stereo not shown) [allulose] | enhanced the cotton candy flavor | increased the preference for the beverage | considered to be sweeter than the 1.5% by weight sucrose solution | clearly above the sweetness threshold | 45 | 49 | 40 | 26 | 34 | ≤ 2.695 | increased the preference for the beverage | enhanced the salted caramel flavor | –
OC[C@H]1O[C@@](CO)(O[C@H]2O[C@H](CO)[C@@H](O)[C@H](O)[C@H]2O)[C@@H](O)[C@@H]1O [sucrose] | – | – | – | – | – | – | – | – | – | – | – | – | 1.5
